# Results as given in patent US8507199B2, “Multi-color time resolved fluorophores based on macrocyclic lanthanide complexes” (Lumiphore, Inc., priority 2007, dated 2013).
# Several values for one entry are separate records, joined by “and”; a condition that tells them apart may be missing. Identical values can stand only once.
# Assays:
# [1] = Luminescence lifetime decay (biexponential fit) of FITC-Tb-BH22IAM conjugate; format: physicochemical; details: Tb-coordinated conjugate, excitation at BH22IAM absorption (~340 nm), emission at 520 nm
# Source text: A short lifetime corresponding to the direct excitation of fluorescein (3.92 nsec) and a long lifetime corresponding to excitation of BH22IAM and energy transfer to fluorescein (524 nsec).
# In another exemplary embodiment, the compounds of the invention emit light at an emission wavelength of the fluorophore attached to the metal chelate through the acceptor-linker. […] For example, compound 3, when coordinated to terbium and excited at a BH22IAM absorption wavelength (˜340 nm), the metal chelate emits at 520 nm, the characteristic wavelength of fluorescein with a lifetime of 524 nsec. The new lifetime is over 100-fold longer than the lifetime for a fluorescein solution that is directly excited (<5 nsec).
# The 524 nsec of the conjugated fluorescein is acquired through direct excitation of the Tb-BH22IAM complex at 340 nm, which normally has a very long lifetime (2.6 msec), followed by energy transfer to the conjugated fluorescein and emission at the characteristic wavelength for fluorescein (520 nm).
# [2] = Steady-state absorption and emission spectra; format: physicochemical
# Source text: FIG. 8 is a steady-state absorption spectrum of FITC-BH22IAM conjugate.
smiles,measurement,setting,value
O=C(O)c1cc(NC(=S)NCCCCC2CN3CCNC(=O)c4cccc(c4O)C(=O)NCCN(CCNC(=O)c4cccc(c4O)C(=O)N2)CCN2CCNC(=O)c4cccc(c4O)C(=O)NCCN(CCNC(=O)c4cccc(c4O)C(=O)NCC2)CC3)ccc1-c1c2ccc(=O)cc-2oc2cc(O)ccc12 (stereo not drawn) [Compound 4a],long lifetime corresponding to excitation of BH22IAM and energy transfer to fluorescein,[1],520 nsec and 524 nsec
same,absorption maxima,"[2]; 340 nm assigned to BH22IAM, 490 nm to fluorescein",340 nm and 490 nm
same,emission wavelength / emission maxima,[2]; excitation at BH22IAM absorption (~340 nm),520 nm
